Assay results published in patent US20230202990A1, “CYCLOHEXYL SUBSTITUTED TRIAZOLES” (Hoffmann-La Roche Inc., priority 2020, published 2023).

The compounds below were run against T1, human V1a receptor (Homo sapiens, UniProt P37288) (assay: human V1a receptor binding studies (3H-Vasopressin SPA, HEK293 cell membranes)). Conditions: competition with 3H-Vasopressin on membranes of HEK293 cells transiently transfected with human V1a receptor; Ki by Cheng-Prussoff equation; read-out: pKi (hV1a) (converted).
T1 construct: expressed in transfected cells; host or cells: HEK293 cells, transiently transfected; cell membranes
T1 sequence (P37288 whole entry): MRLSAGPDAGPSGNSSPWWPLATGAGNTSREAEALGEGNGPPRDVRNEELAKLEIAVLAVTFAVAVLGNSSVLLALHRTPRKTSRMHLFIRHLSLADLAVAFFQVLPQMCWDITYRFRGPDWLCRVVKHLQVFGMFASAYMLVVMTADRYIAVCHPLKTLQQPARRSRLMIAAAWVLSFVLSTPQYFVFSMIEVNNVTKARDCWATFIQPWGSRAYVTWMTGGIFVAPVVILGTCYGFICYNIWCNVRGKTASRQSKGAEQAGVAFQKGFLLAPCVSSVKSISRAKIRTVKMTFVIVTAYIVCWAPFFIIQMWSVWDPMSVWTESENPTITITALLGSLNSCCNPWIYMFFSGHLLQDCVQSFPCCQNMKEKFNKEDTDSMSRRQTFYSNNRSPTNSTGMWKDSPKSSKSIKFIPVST
Experimental: The human V1a receptor was cloned by RT-PCR from total human liver RNA. The coding sequence was subcloned in an expression vector after sequencing to confirm the identity of the amplified sequence. […] Cell membranes were prepared from HEK293 cells transiently transfected with the expression vector and grown in 20 liter fermenters with the following protocol.
50 g of cells are re-suspended in 30 ml freshly prepared ice cold Lysis buffer (50 mM HEPES, 1 mM EDTA, 10 mM MgCl2 adjusted to pH= 7.4 + complete cocktail of protease inhibitor (Roche Diagnostics)). Homogenized with Polytron for Imin and sonicated on ice for 2x 2 minutes at 80% intensity (Vibracell sonicator). The preparation is centrifuged 20 min at 500 g at 4° C., the pellet is discarded and the supernatant centrifuged 1 hour at 43 ′000g at 4° C. (19 ′000rpm). The pellet is re-suspended in 12.5 ml Lysis buffer+12.5 ml Sucrose 20% and homogenized using a Polytron for 1-2 min. The protein concentration is determined by the Bradford method and aliquots are stored at -80° C. until use. For binding studies 60 mg Yttrium silicate SPA beads (Amersham) are mixed with an aliquot of membrane in binding buffer (50 mM Tris, 120 mM NaCl, 5 mM KCl, 2 mM CaCl2, 10 mM MgCl2) for 15 minutes with mixing. 50 µl of bead/membrane mixture is then added to each well of a 96 well plate, followed by 50 µl of 4 nM 3H-Vasopressin (American Radiolabeled Chemicals). For total binding measurement 100 µl of binding buffer are added to the respective wells, for non-specific binding 100 µl of 8.4 mM cold vasopressin and for compound testing 100 µl of a serial dilution of each compound in 2% DMSO. The plate is incubated 1 h at room temperature, centrifuged 1 min at 1000 g and counted on a Packard Top-Count. Non-specific binding counts are subtracted from each well and data is normalized to the maximum specific binding set at 100%. To calculate an IC50 the curve is fitted using a non-linear regression model (XLfit) and the Ki is calculated using the Cheng-Prussoff equation.

Row | SMILES | Ki [nM]
1 | COCc1nnc([C@H]2CC[C@H](Oc3cnccn3)CC2)n1-c1ccc(Cl)cc1 [Example 69, trans[4-[4-(4-Chlorophenyl)-5-(methoxymethyl)-1,2,4-triazol-3-yl]cyclohexyl]oxypyrazine] | 2.45
2 | Cc1nnc([C@H]2CC[C@H](Oc3ccccn3)CC2)n1-c1ccc(Br)cc1 [Example 9, trans((4-(4-(4-Bromophenyl)-5-methyl-4H-1,2,4-triazol-3-yl)cyclohexyl)oxy)pyridine] | 0.195
3 | Cc1ccc(-n2c(C(F)F)nnc2[C@H]2CC[C@H](Oc3ccccn3)CC2)cc1 [Example 31, trans((4-(5-(Difluoromethyl)-4-(p-tolyl)-4H-1,2,4-triazol-3-yl)cyclohexyl)oxy)pyridine] | 3.39
4 | COCc1nnc([C@H]2CC[C@H](Oc3ccc(C)nc3)CC2)n1-c1ccc(C)cc1 [Example 66, trans[4-[5-(Methoxymethyl)-4-(4-methylphenyl)-1,2,4-triazol-3-yl]cyclohexyl]oxy-2-methylpyridine] | 3.47
